Series [1] is described as follows: Stability test: storage of an oil dispersion. In kind it is physicochemical. The following applies: oil dispersion of tembotrione; after several weeks of storage; compared to oil dispersion of crystal modification II, III or a mixture thereof.
Series [2] is described as follows: Tests in practice of suspension formulations. In kind it is physicochemical. To be noted: tembotrione finely ground in solid form, spontaneously or over a relatively long period of time. The text has this: Tembotrione, which is known, for example, from WO 00/21924 (example No. 3 in table 1), has herbicidal properties and is suitable for preparing crop protection compositions used for weed control. […] User-friendly presentation forms are, for example, suspension formulations in which tembotrione is present finely ground in solid form. […] The crystal growth may occur spontaneously or over a relatively long period of time and is unpredictable.

Consider `CS(=O)(=O)c1ccc(C(=O)C2C(=O)CCCC2=O)c(Cl)c1COCC(F)(F)F` [crystal modification I, 2-({2-chloro-4-(methylsulfonyl)-3-[(2,2,2-trifluoroethoxy)methyl]phenyl}carbonyl)cyclohexan-1,3-dione], for which the “signs of agglomeration and precipitation on storage” value in series [1] was “no signs of agglomeration and precipitation”.
In the case of `CS(=O)(=O)c1ccc(C(=O)C2C(=O)CCCC2=O)c(Cl)c1COCC(F)(F)F` [tembotrione, 2-({2-chloro-4-(methylsulfonyl)-3-[(2,2,2-trifluoroethoxy)methyl]phenyl}carbonyl)cyclohexan-1,3-dione], the “crystal growth, agglomeration and precipitation in suspension formulation” value in series [2] was “leads to crystal growth and, as a consequence thereof, to agglomeration and precipitation”.

These data come from US8722582B2, “Thermodynamically stable crystal modification of 2-({2-chloro-4-(methylsulfonyl)-3-[(2,2,2-trifluoroethoxy)methyl]phenyl} carbonyl)cyclohexane-1,3-dione” (Bayer Cropscience AG, priority 2007, dated 2014).
